The test system of assay [1] is A2780 ovarian carcinoma cells. Briefly: Determination of antiproliferative activity on A2780 cells (MTT). It counts as cell-based. The settings on record: Homo sapiens, 96 h, four days of incubation, read-out: Cellular activity pIC50 (converted). As to the method:
Cellular activity of the compounds of formula (I) was determined on A2780 tumour cells using a colorimetric assay for cell toxicity or survival (Mosmann Tim, Journal of Immunological Methods 65:55-63, 1983)(see example C.2).
All compounds tested were dissolved in DMSO and further dilutions were made in culture medium. Final DMSO concentrations never exceeded 0.1% (v/v) in cell proliferation assays. Controls contained A2780 cells and DMSO without compound and blanks contained DMSO but no cells. MTT was dissolved at 5 mg/ml in PBS. A glycine buffer comprised of 0.1 M glycine and 0.1 M NaCl buffered to pH 10.5 with NaOH (1 N) was prepared (all reagents were from Merck).
The human A2780 ovarian carcinoma cells (a kind gift from Dr. T. C. Hamilton [Fox Chase Cancer Centre, Pennsylvania, USA]) were cultured in RPMI 1640 medium supplemented with 2 mM L-glutamine, 50 μg/ml gentamicin and 10% fetal calf serum. Cells were routinely kept as monolayer cultures at 37° C. in a humidified 5% CO2 atmosphere. Cells were passaged once a week using a trypsin/EDTA solution at a split ratio of 1:40. All media and supplements were obtained from Life Technologies. Cells were free of mycoplasma contamination as determined using the Gen-Probe Mycoplasma Tissue Culture kit (supplier: BioMerieux).
Cells were seeded in NUNC™ 96-well culture plates (Supplier: Life Technologies) and allowed to adhere to the plastic overnight. Densities used for plating were 1500 cells per well in a total volume of 200 μl medium. After cell adhesion to the plates, medium was changed and drugs and/or solvents were added to a final volume of 200 μl. Following four days of incubation, medium was replaced by 200 μl fresh medium and cell density and viability was assessed using an MTT-based assay. To each well, 25 μl MTT solution was added and the cells were further incubated for 2 hours at 37° C. The medium was then carefully aspirated and the blue MTT-formazan product was solubilized by addition of 25 μl glycine buffer followed by 100 μl of DMSO. […] Within an experiment, the results for each experimental condition are the mean of 3 replicate wells. For initial screening purposes, compounds were tested at a single fixed concentration of 10^−6 M. For active compounds, the experiments were repeated to establish full concentration-response curves. For each experiment, controls (containing no drug) and a blank incubation (containing no cells or drugs) were run in parallel. The blank value was subtracted from all control and sample values. For each sample, the mean value for cell growth (in absorbance units) was expressed as a percentage of the mean value for cell growth of the control. […] Herein the effects of test compounds are expressed as pIC50 (the negative log value of the IC50-value)(see Table F-3).

Another assay deals with p21 promoter. In words: p21 induction capacity, in vivo method (tumour fluorescence in nude mice). More on the design: key: inactive (no fluorescence measurable); weaker, identical or better than R306465; weaker, identical or better than R306465; weaker, identical or better than R306465. Particulars: oral administration, daily during 6 days, 20-40 mpk. Here is the method: A first method tests the capacity of compounds to induce p21 as the consequence of HDAC inhibition at the cellular level. […] The reporter gene is a fluorescent protein and the expression of the reporter gene is measured as the amount of fluorescent light emitted (see example C.6.a.). The second method is an in vivo method wherein mice are used for screening the pharmaceutical activity of a compound. The above described stably transformed tumour cells can be administered to mice in an amount sufficient to effect production of a tumour. After the tumour cells had sufficient time to form a tumour, a potentially active compound can be administered to the animals and the effect of said compound On the tumour cells is evaluated by measuring the expression of the reporter gene. […]
A selected clone was injected subcutaneous (10^7 cells/200 μl) into the flank of nude mice and a calliper measurable tumour was obtained after 12 days. […] Tumours were evaluated for fluorescence by the in-house developed Automated Whole Body Imaging System (Fluorescent stereomicroscope type Olympus® SZX12 equipped with a GFP filter and coupled to a CCD camera type IAI® CV-M90 controlled by a software package based on the IMAQ Vision Software from National Instruments®). […]

Molecules are shown by their SMILES.

On to `O=C(NO)c1cnc(N2CCC(CNC(/C=C/c3ccccc3)CO)CC2)nc1` (centres unmarked) [Compound 1], for which the IC50 in assay [1] was 25.1 nM. Further, in the assay with p21 promoter, the “tumour fluorescence (p21 induction) ranked against R306465” value is “better”.

For the origin of these results see US8377935B2, “Substituted aminopropenyl piperidine or morpholine derivatives as novel inhibitors of histone deacetylase” (Janssen Pharmaceutica N.V., priority 2005, dated 2013).
